Measured values published in ChEMBL document CHEMBL1150867, “New sesquiterpene hydroquinones from a Taiwanese marine sponge, Hippospongia metachromia” (J Nat Prod, 2001).
Converted amounts (≈) assume the structure as drawn.

Legend:
[1] = Cytotoxicity against human KB16 cells by methylene blue dye assay
[2] = test system: COLO 205; assay: Cytotoxicity against human COLO205 cells by methylene blue dye assay

Row | SMILES | IC50 [1] | IC50 [2]
1 | C=C1[C@H](C)CCC[C@]1(C)CC[C@@]1(C)C=Cc2c(OC(C)=O)c(OC(C)=O)cc(OC)c2O1 [HIPPOCHROMIN A DIACETATE] | 3.06 µg/mL | 0.22 µg/mL
2 | C=C1[C@H](C)CCC[C@]1(C)CC[C@@]1(C)C=Cc2c(OC(C)=O)c(OC)cc(OC(C)=O)c2O1 [HIPPOCHROMIN B DIACETATE] | > 10 µg/mL | > 10 µg/mL
3 | C=C1[C@H](C)CCC[C@]1(C)CC/C(C)=C/CC1=C(OC)C(=O)C=C(OC)C1=O [METACHROMIN A MONOMETHYLATE] | > 10 µg/mL | > 10 µg/mL
4 | C=C1[C@H](C)CCC[C@]1(C)CC/C(C)=C/CC1=C(O)C(=O)C=C(OC)C1=O [METACHROMIN A] | 1.8 µg/mL (≈ 5.02 µM) | 0.1 µg/mL (≈ 0.279 µM)
5 | C=C1[C@H](C)CCC[C@]1(C)CC[C@@]1(C)C=Cc2c(OC(C)=O)c(OC)cc(OC)c2O1 [METACHROMIN B MONO METHYLATE] | 1.32 µg/mL (≈ 3.18 µM) | 0.53 µg/mL (≈ 1.28 µM)
6 | C=C1[C@H](C)CCC[C@]1(C)CC[C@@]1(C)C=Cc2c(O)c(OC)cc(OC)c2O1 [METACHROMIN B] | 0.68 µg/mL (≈ 1.83 µM) | 0.26 µg/mL (≈ 0.698 µM)
7 | C=C1[C@H](C)CCC[C@]1(C)CC[C@@]1(C)C=CC2=C(O1)C(=O)C=C(OC)C2=O [METACHROMIN E] | > 10 µg/mL | > 10 µg/mL
